One assay addresses T1, CDK7 (Homo sapiens, UniProt P50613).
T1 construct: purchased Life Technologies (Adapta kinase assay service)
The assay can be described thus: CDK7 kinase activity, Adapta kinase assay (Life Technologies). It is filed as biochemical. The note with it: Adapta kinase assay at Life Technologies; 10 μM down to 0.514 nM, 3-fold serial dilutions; read-out: CDK7 Inhibition (IC50). The method, then:
Compounds of the invention were assayed for CDK7 activity at Life Technologies™ (Grand Island, N.Y.) using their commercially available Adapta® kinase assay services. Compounds were tested at concentrations ranging from 10 μM down to 0.514 nM in a series of 3-fold serial dilutions. Details of these assays, including substrates used, are available on the Life Technologies web site (http://www.lifetechnologies.com/us/en/home/life-science/drug-discovery/target-and-lead-identification-and-validation/kinasebiology/kinase-activity-assays.html).

The test system of another assay is Jurkat cells. As to the kind of experiment: Inhibition of proliferation of Jurkat cells (CellTiter-Glo, 72 hour). It is filed as cell-based, human. The settings on record: 10 μM to 316 pM. The method, then: Jurkat cells are a cell line established from a human T cell leukemia. Representative compounds of the invention were tested at different concentrations (from 10 μM to 316 pM; 0.5 log serial dilutions) for their ability to inhibit the proliferation of Jurkat cells. Known CDK inhibitors flavopiridol and triptolide were used as positive controls. Cells were grown in RPMI 1640+10% FBS+1% Glutamax. The cells were supplemented with FBS (Life Technologies) and 100 U·mL^− penicillin, 100 μg·mL^− streptomycin (Invitrogen) and cultured at 37° C. in a humidified chamber in the presence of 5% CO2. Proliferation assays were conducted over a 72 hour time period. CellTiter-Glo® (Promega Corporation, Madison, Wis. USA) was used to assess the anti-proliferative effects of the compounds following manufacturer's directions and utilizing the reagents supplied with the CellTiter-Glo® kit. In this table, “A” represents an IC50 of less than 500 nM; “B” an IC50 of between 500 nM and 5 μM; and “C” an IC50 of greater than 5 μM.
(In general: Cellular ATP, detected with luciferase, serves as a proxy for viable cell number.)

A further assay deals with A673 cells. The assay can be described thus: Inhibition of proliferation of A673 cells (CyQUANT, 72 hour). The format is cell-based, human. The settings on record: Homo sapiens, 72 hour proliferation. The method, then: A673 cells are a cell line derived from human muscle Ewing's sarcoma. Representative compounds of the invention were tested at different concentrations (from 4 μM to 126.4 pM; 0.5 log serial dilutions) for their ability to inhibit the proliferation of A673 cells. Known CDK inhibitors flavopiridol and triptolide were used as positive controls. Cells were grown in Dulbecco's Modified Eagle's Medium, +10% FBS+1 mM Sodium Pyruvate. The cells were cultured at 37° C. in a humidified chamber in the presence of 5% CO2. Proliferation assays were conducted over a 72 hour time period. CyQUANT® (Life Technologies, Chicago, Ill. USA) was used to assess the anti-proliferative effects of the compounds following manufacturer's directions and utilizing the reagents supplied with the CyQUANT® kit. In this table, “A” represents an IC50 of less than 500 nM; “B” an IC50 of between 500 nM and 5 μM; and “C” an IC50 of greater than 5 μM.

Where a name gives a salt, the structure may show the parent alone. Some results are limits rather than exact numbers.

The term IC50 denotes the point on the concentration scale where inhibition reaches its midpoint.

T1 sequence (P50613 whole entry): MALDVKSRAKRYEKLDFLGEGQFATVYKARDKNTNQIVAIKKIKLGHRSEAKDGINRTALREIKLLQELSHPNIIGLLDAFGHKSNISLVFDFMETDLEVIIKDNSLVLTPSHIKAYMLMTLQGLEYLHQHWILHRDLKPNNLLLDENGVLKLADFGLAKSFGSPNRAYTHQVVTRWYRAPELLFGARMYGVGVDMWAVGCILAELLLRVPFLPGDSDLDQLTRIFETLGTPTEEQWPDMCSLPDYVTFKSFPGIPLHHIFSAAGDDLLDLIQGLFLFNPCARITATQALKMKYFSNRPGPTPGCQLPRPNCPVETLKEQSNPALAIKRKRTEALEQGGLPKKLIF
T1 sequence (P51946 whole entry partner): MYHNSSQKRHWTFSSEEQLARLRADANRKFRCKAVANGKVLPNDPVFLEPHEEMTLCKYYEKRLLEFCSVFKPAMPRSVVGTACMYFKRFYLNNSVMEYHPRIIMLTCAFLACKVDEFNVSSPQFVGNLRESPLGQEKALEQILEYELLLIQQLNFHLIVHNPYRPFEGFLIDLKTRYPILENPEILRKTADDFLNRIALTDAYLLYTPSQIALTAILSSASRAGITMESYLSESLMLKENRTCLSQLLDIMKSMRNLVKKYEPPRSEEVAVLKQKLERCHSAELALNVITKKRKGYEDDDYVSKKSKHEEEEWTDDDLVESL
T1 sequence (P51948 whole entry partner): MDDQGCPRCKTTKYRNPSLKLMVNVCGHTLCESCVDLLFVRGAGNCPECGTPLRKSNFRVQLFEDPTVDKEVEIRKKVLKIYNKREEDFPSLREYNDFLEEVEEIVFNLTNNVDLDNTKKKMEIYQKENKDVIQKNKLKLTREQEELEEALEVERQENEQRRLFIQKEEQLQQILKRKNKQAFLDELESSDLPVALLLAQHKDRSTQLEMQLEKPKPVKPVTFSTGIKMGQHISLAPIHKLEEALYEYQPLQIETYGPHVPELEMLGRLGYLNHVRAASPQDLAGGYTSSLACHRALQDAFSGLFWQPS

As for `C=CC(=O)NC12CC(C(=O)Nc3cccc(Nc4ncc(Cl)c(-c5c[nH]c6ccccc56)n4)c3)(C1)C2` (racemic) [Compound 108, N-(3-{[5-chloro-4-(1H-indol-3-yl)pyrimidin-2-yl]amino}phenyl)-3-(prop-2-enamido)bicyclo[1.1.1]pentane-1-carboxamide], the IC50 at CDK7 was greater than 1000 nM. With `CN(C)CC=CC(=O)N1CCCC(CNC2CCC(Nc3ncc(Cl)c(-c4c[nH]c5ccccc45)n3)CC2)C1` (racemic) [compound 194], the IC50 at CDK7 is 100 to 1000 nM; with Jurkat cells, less than 500 nM. Consider `C=CC(=O)N1CCCC(CN(C(=O)C=C)[C@H]2CC[C@@H](Nc3ncc(Cl)c(-c4c[nH]c5ccccc45)n3)CC2)C1` (single isomer, unassigned) [191-2], for which the results for the IC50 at CDK7 and with Jurkat cells were greater than 1000 nM and greater than 5000 nM, respectively. Regarding `C=CC(=O)N1CCCC(CN[C@H]2CC[C@@H](Nc3ncc(Cl)c(-c4c[nH]c5ccccc45)n3)CC2)C1` (single isomer, unassigned) [compound 195], the IC50 on CDK7 is 100 to 1000 nM; with Jurkat cells, less than 500 nM. `CN(C)C/C=C/C(=O)NCCCCC(=O)N1CC[C@@H](Nc2ncc(Cl)c(-c3c[nH]c4ccccc34)n2)C1` [Compound 100, (E)-N-(5-((R)-3-(5-chloro-4-(1H-indol-3-yl)pyrimidin-2-ylamino)pyrrolidin-1-yl)-5-oxopentyl)-4-(dimethylamino)but-2-enamide]: the IC50 on CDK7 was less than 100 nM; with Jurkat cells (Homo sapiens) it was 500 to 5000 nM. For `CN(C)C/C=C/C(=O)N[C@H]1CC[C@@H](C(=O)Nc2cccc(Nc3ncc(Cl)c(-c4c[nH]c5ccccc45)n3)c2)CC1` [Compound 101, (Cis,E)-N-(3-(5-chloro-4-(1H-indol-3-yl)pyrimidin-2-ylamino)phenyl)-4-(4-(dimethylamino)but-2-enamido)cyclohexanecarboxamide] the same measures were less than 100 nM and greater than 5000 nM. Consider `CN(C)C/C=C/C(=O)N[C@H]1CC[C@H](C(=O)Nc2cccc(Nc3ncc(Cl)c(-c4c[nH]c5ccccc45)n3)c2)CC1` [Compound 102, (trans,E)-N-(3-(5-chloro-4-(1H-indol-3-yl)pyrimidin-2-ylamino)phenyl)-4-(4-(dimethylamino)but-2-enamido)cyclohexanecarboxamide], for which the results for the IC50 at CDK7 and in the assay on Jurkat cells (Homo sapiens) were less than 100 nM and 500 to 5000 nM, respectively.

With `CN(C)C/C=C/C(=O)N1CCC[C@@H](C(=O)Nc2cccc(Nc3ncc(Cl)c(-c4c[nH]c5ccccc45)n3)c2)C1` [Compound 103, (3R,E)-N-(3-(5-chloro-4-(1H-indol-3-yl)pyrimidin-2-ylamino)phenyl)-1-(4-(dimethylamino)but-2-enoyl)piperidine-3-carboxamide], the IC50 on CDK7 is less than 100 nM; in the assay with Jurkat cells (Homo sapiens), 500 to 5000 nM. On to `CN(C)C/C=C/C(=O)N1CCC[C@H](C(=O)Nc2cccc(Nc3ncc(Cl)c(-c4c[nH]c5ccccc45)n3)c2)C1` [Compound 104, (3S,E)-N-(3-(5-chloro-4-(1H-indol-3-yl)pyrimidin-2-ylamino)phenyl)-1-(4-(dimethylamino)but-2-enoyl)piperidine-3-carboxamide], for which the IC50 at CDK7 was less than 100 nM; with Jurkat cells (Homo sapiens), 500 to 5000 nM. As for `CN(C)C/C=C/C(=O)N1CCC(C(=O)Nc2cccc(Nc3ncc(Cl)c(-c4c[nH]c5ccccc45)n3)c2)CC1` [Compound 105, (E)-N-(3-(5-chloro-4-(1H-indol-3-yl)pyrimidin-2-ylamino)phenyl)-1-(4-(dimethylamino)but-2-enoyl)piperidine-4-carboxamide], the IC50 at CDK7 was less than 100 nM; with Jurkat cells (Homo sapiens) it was 500 to 5000 nM. For `CN(C)C/C=C/C(=O)Nc1ccc(C(=O)Nc2cccc(Nc3ncc(Cl)c(-c4c[nH]c5ccccc45)n3)c2)nc1` [Compound 107, (E)-N-(3-(5-chloro-4-(1H-indol-3-yl)pyrimidin-2-ylamino)phenyl)-5-(4-(dimethylamino)but-2-enamido)picolinamide] the same measures were less than 100 nM and 500 to 5000 nM. As to `CN(C)C/C=C/C(=O)NCC(F)(F)C(=O)N[C@H]1CCC[C@@H](Nc2ncc(Cl)c(-c3c[nH]c4ccccc34)n2)C1` [Compound 111, (E)-N-(3-((1S,3R)-3-(5-chloro-4-(1H-indol-3-yl)pyrimidin-2-ylamino)cyclohexlamino)-2,2-difluoro-3-oxopropyl)-4-(dimethylamino)but-2-enamide], the results for the IC50 on CDK7 and in the assay with Jurkat cells (Homo sapiens) were less than 100 nM and less than 500 nM, respectively.

Turning to `C=CC(=O)N1CCN(C[C@H]2CCC[C@@H](Nc3ncc(Cl)c(-c4c[nH]c5ccccc45)n3)C2)CC1` [Compound 129, 1-(4-(((1S,3R)-3-((5-chloro-4-(1H-indol-3-yl)pyrimidin-2-yl)amino)cyclohexyl)methyl)piperazin-1-yl)prop-2-en-1-One], the IC50 in the assay with A673 cells is less than 500 nM; on CDK7, less than 100 nM.

Regarding `C=CC(=O)N1CCC(CN2CCC(Nc3ncc(Cl)c(-c4c[nH]c5ccccc45)n3)CC2)CC1` [Compound 141, 1-(4-((4-((5-chloro-4-(1H-indol-3-yl)pyrimidin-2-yl)amino)piperidin-1-yl)methyl)piperidin-1-yl)prop-2-en-1-One], the IC50 on CDK7 was less than 100 nM; in the assay on Jurkat cells (Homo sapiens), less than 500 nM. Regarding `C=CC(=O)N[C@H]1CCC[C@@H](Nc2ncc(Cl)c(-c3c[nH]c4ccccc34)n2)C1` [Compound 170, N-((1S,3R)-3-(5-chloro-4-(1H-indol-3-yl)pyrimidin-2-ylamino)cyclohexyl)acrylamide], the IC50 at CDK7 is less than 100 nM; with Jurkat cells (Homo sapiens) it was 500 to 5000 nM. Take `C=CC(=O)N(C)[C@H]1CCC[C@@H](Nc2ncc(Cl)c(-c3c[nH]c4ccccc34)n2)C1` [Compound 171, N-((1S,3R)-3-(5-chloro-4-(1H-indol-3-yl)pyrimidin-2-ylamino)cyclohexyl)-N-methylacrylamide]: the IC50 on CDK7 is less than 100 nM; in the assay with Jurkat cells (Homo sapiens) it was less than 500 nM. For `N#Cc1cnc(N[C@@H]2CCC[C@H](NC(=O)c3ccc(N)cn3)C2)nc1-c1c[nH]c2ccccc12` [Compound 1009, 5-amino-N-((1S,3R)-3-(5-cyano-4-(1H-indol-3-yl)pyrimidin-2-ylamino)cyclohexyl)picolinamide], the IC50 at CDK7 is less than 100 nM.

For `NCC(F)(F)C(=O)N[C@H]1CCC[C@@H](Nc2ncc(Cl)c(-c3c[nH]c4ccccc34)n2)C1` [Compound 1010, 3-amino-N-((1S,3R)-3-(5-chloro-4-(1H-indol-3-yl)pyrimidin-2-ylamino)cyclohexyl)-2,2-difluoropropanamide], the IC50 on CDK7 is less than 100 nM.

In the case of `Nc1ccc(C(=O)Nc2cccc(Nc3ncc(Cl)c(-c4c[nH]c5ccccc45)n3)c2)cn1` [Compound 1024, 6-amino-N-(3-(5-chloro-4-(1H-indol-3-yl)pyrimidin-2-ylamino)phenyl)nicotinamide], the IC50 in the assay with Jurkat cells (Homo sapiens) lay within 500 to 5000 nM. On to `Nc1ccc(C(=O)N[C@H]2CCC[C@@H](Nc3ncc(Cl)c(-c4c[nH]c5ccccc45)n3)C2)cn1` [Compound 1025, 6-amino-N-((1S,3R)-3-(5-chloro-4-(1H-indol-3-yl)pyrimidin-2-ylamino)cyclohexyl)nicotinamide], for which, in the assay on Jurkat cells (Homo sapiens), the IC50 was in the range of 500 to 5000 nM. On to `Nc1nc(C(=O)N[C@H]2CCC[C@@H](Nc3ncc(Cl)c(-c4c[nH]c5ccccc45)n3)C2)cs1` [Compound 1026, 2-amino-N-((1S,3R)-3-(5-chloro-4-(1H-indol-3-yl)pyrimidin-2-ylamino)cyclohexyl)thiazole-4-carboxamide], for which, in the assay on Jurkat cells (Homo sapiens), the IC50 lay within 500 to 5000 nM. The same measure, in the same setting: as for `Nc1ccc(C(=O)N[C@H]2CCC[C@@H](Nc3ncc(Cl)c(-c4c[nH]c5ccccc45)n3)C2)nn1` [Compound 1027, 6-amino-N-((1S,3R)-3-(5-chloro-4-(1H-indol-3-yl)pyrimidin-2-ylamino)cyclohexyl)pyridazine-3-carboxamide], the figure is 500 to 5000 nM; as for `NCCc1cc2ccc(Nc3ncc(Cl)c(-c4c[nH]c5ccccc45)n3)cc2[nH]1` [Compound 1028, 2-(2-aminoethyl)-N-(5-chloro-4-(1H-indol-3-yl)pyrimidin-2-yl)-1H-indol-6-amine.HCl], 500 to 5000 nM. With `CN(C)CCCC(=O)NCCc1cc2ccc(Nc3ncc(Cl)c(-c4c[nH]c5ccccc45)n3)cc2[nH]1` [Compound 1029, N-(2-(6-(5-chloro-4-(1H-indol-3-yl)pyrimidin-2-ylamino)-1H-indol-2-yl)ethyl)-4-(dimethylamino)butanamide], the IC50 with Jurkat cells (Homo sapiens) lay in the range of 500 to 5000 nM. In turn, `CN(C)CCCC(=O)Nc1ccc(C(=O)Nc2cccc(Nc3ncc(Cl)c(-c4c[nH]c5ccccc45)n3)c2)nc1` [compound 1023] yielded an IC50 with Jurkat cells of 500 to 5000 nM.
